The values below come from patent publication US10183938B2, “Geminal substituted quinuclidine amide compounds as agonists of α-7 nicotonic acetylcholine receptors” (AXOVANT SCIENCES GMBH, priority 2014, dated 2019).

Structures are written as SMILES. Structures can show the parent of a compound that is named as a salt.

Assay [1] deals with male Wistar rats. Briefly: Novel Object Recognition task (natural forgetting). The format is in vivo, rat. The note with it: sub-cutaneous, 30 minutes before T1, 48-hour retention interval, p<0.05 novel vs. familiar object. From the text: Novel Object Recognition Task:
The Novel Object Recognition (NOR) task is a behavioral assay commonly used to evaluate cognition, particularly recognition memory, in rodent models of CNS disorders. This test is based on the spontaneous tendency of rodents to spend more time exploring a novel object compared to a familiar one. The choice to explore the novel object reflects the use of learning and recognition memory. The assay is commonly used to evaluate potential therapeutic agents for Alzheimer's disease, other neurodegenerative diseases and psychiatric disorders.
Male Wistar rats (Harlan Laboratories) weighing 350-400 grams were housed under a reversed light cycle and are tested during the dark cycle. Testing was done under low lux conditions, measured to be ˜2-7 lux under red light. Animals were habituated and weighed one day prior to testing. During habituation, animals were placed in a cylindrical arena and allowed to explore for 3 minutes. Training (T1) was conducted approximately 24 hours later, with one set of identical objects placed on opposite sides of the arena. Animals were allowed to explore the objects in 3-minute sessions. Animals were dosed with a designated treatment 15-60 minutes prior to testing depending on the pharmacokinetic profile of the compound before the start of T1. Drug or vehicle was dosed subcutaneously based on body weight at 5 mL/kg. Testing (T2) was done at 48 hours after T1. During testing, one familiar object is replaced with a novel object. Animals were allowed to explore both objects in 3-minute sessions.
Animals were tracked using Noldus Ethovision XT (EthoVision XT version: 8.5, Noldus Inc. Wageningen, Netherlands) tracking software, using a 2 centimeter (cm) perimeter for each object as a separate zone. The test arena consisted of a cylinder, 80 cm diameter with 40 cm high walls of black acrylic that was opaque and matte. […]
Contact time was defined as the amount of time (seconds) an animal spent within the 2 cm perimeter of an object. […] Statistical significance was determined using a Mann Whitney U-test and the criterion was set at p<0.05. […]

The target in assay [2] is human α7 nAChRs transiently expressed in Xenopus laevis oocytes (Homo sapiens (Human), UniProt P36544). The assay is described as follows: Oocyte electrophysiology screen (TEVC). The format is cell-based. The settings on record: 0.01 mM test compound, peak current relative to 0.2 mM ACh. In a few lines:
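Oocytes expressing human α7 were clamped at −80 mV by TEVC. After a 0.2 mM ACh control pulse, test compound was applied at 0.01 mM for 30 s. Agonist response is peak current as % of the ACh response, in triplicate.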

For assay [3], the target named is human 5-HT3 serotonin receptors (Homo sapiens (Human), UniProt P46098). The assay is described as follows: [3H]BRL 43694 competition binding. The settings on record: CHO cell membranes, [3H]BRL 43694, Cheng Prusoff; read-out: h-5HT3 Ki.
Chain of human 5-HT3 serotonin receptors (P46098 24-478): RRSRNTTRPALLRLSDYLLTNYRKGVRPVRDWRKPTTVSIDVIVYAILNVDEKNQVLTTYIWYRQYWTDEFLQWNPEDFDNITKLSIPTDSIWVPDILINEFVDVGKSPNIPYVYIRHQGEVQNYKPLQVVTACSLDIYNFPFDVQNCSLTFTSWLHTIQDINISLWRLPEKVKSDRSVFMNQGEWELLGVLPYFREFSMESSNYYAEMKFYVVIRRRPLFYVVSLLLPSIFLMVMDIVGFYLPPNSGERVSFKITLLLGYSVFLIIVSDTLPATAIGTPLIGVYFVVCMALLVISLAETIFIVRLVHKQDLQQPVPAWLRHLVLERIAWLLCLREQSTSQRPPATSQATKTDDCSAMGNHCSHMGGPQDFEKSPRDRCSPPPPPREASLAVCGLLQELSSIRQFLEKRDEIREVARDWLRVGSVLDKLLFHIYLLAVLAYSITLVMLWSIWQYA

Chain of human α7 nAChRs transiently expressed in Xenopus laevis oocytes (P36544 23-502 limits assumed): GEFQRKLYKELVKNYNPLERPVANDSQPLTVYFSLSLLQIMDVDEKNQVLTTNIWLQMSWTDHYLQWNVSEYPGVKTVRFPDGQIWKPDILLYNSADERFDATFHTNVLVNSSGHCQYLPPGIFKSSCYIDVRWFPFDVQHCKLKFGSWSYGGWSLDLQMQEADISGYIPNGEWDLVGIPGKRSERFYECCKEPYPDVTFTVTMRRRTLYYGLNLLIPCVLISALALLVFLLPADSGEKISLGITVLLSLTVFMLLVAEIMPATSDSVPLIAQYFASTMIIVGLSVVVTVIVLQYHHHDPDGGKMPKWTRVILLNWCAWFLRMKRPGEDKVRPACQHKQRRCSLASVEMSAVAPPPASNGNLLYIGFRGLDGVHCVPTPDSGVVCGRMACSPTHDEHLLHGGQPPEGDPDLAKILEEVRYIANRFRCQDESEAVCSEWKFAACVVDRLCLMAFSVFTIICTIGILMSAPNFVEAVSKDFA

Turning to `O=C(NC1C2CCN(CC2)C12CC2)c1cc2ccc(Cl)cc2s1` (single isomer, unassigned; enantiomer1) [65a, 6-chloro-N-(1′-azaspiro[cyclopropane-1,2′-bicyclo[2.2.2]octan]-3′-yl)benzo[b]thiophene-2-carboxamide-enantiomer1 hydrochloride], the “Active doses” value in assay [1] worked out at 0.3 mg/kg. In assay [2] (hydrochloride), the “% ACh @ 10 μM Oocyte” value is 682 % ACh.
In the case of `Cc1ccc2cc(C(=O)NC3C4CCN(CC4)C34CC4)sc2c1` (single isomer, unassigned; enantiomer1) [68a, 6-methyl-N-(1′-azaspiro[cyclopropane-1,2′-bicyclo[2.2.2]octan]-3′-yl)benzo[b]thiophene-2-carboxamide-enantiomer1 hydrochloride], in assay [1], the “Active doses” value came out at 0.001 mg/kg. For the same compound, the “% ACh @ 10 μM Oocyte” value in assay [2] (hydrochloride) was 769 % ACh.
For orientation: Ki means the equilibrium dissociation constant of an inhibitor or competing ligand from its target. As for `CC1(C)[C@H](NC(=O)c2cc3ccc(Cl)cc3s2)C2CCN1CC2` [(R)-12, (R)-6-chloro-N-(2,2-dimethylquinuclidin-3-yl)benzo[b]thiophene-2-carboxamide hydrochloride], in assay [1], the “Active doses” value is given as 30 mg/kg. In addition, the “% ACh @ 10 μM Oocyte” value in assay [2] was found to be 765 % ACh. Besides, in assay [3], the Ki is above 10000 nM.
Take `O=C(N[C@@H]1C2CCN(CC2)C12CC2)c1cc2ccc(Cl)cc2o1` [(R)-163, (R)-6-chloro-N-(1′-azaspiro[cyclopropane-1,2′-bicyclo[2.2.2]octan]-3′-yl)benzofuran-2-carboxamide hydrochloride]: the “% ACh @ 10 μM Oocyte” value in assay [2] is 446 % ACh. For the same compound, the inhibitory constant (Ki) in assay [3] is 2000 nM.
`CC1(C)[C@H](NC(=O)c2cc3cccc(Cl)c3o2)C2CCN1CC2.Cl` [(R)-217, (R)-7-chloro-N-(2,2-dimethylquinuclidin-3-yl)benzofuran-2-carboxamide hydrochloride]: in assay [2], the “% ACh @ 10 μM Oocyte” value is 473 % ACh. Besides, in assay [3], the Ki was determined as 1100 nM.
